From paper PMC4805166, “Synthetic Cyclolipopeptides Selective against Microbial, Plant and Animal Cell Targets by Incorporation of D-Amino Acids or Histidine” (PLoS ONE, 2016)
Values joined by “and” are separate entries in the source; they are usually repeats but may differ in a detail not shown here. Identical values can stand only once. Like-named read-outs stand apart in the source and are kept apart here. Where a SMILES comes first, the peptide text is derived from it. Side-chain parts run from the residue outwards. [ ]: non-standard residue; d: D form. The star is where a group is joined. Pentanoyl(4-Me) = CC(C)CCC(=O)*; Hexanoyl = CCCCCC(=O)*; Butyryl = CCCC(=O)*

Assays:
[1] = tested on: Pseudomonas syringae pv. syringae EPS94; type: cell-based; settings: 48 h
Description: (§1) The following plant pathogenic bacterial strains were used: Erwinia amylovora PMV6076 (Institut National de la Recherche Agronomique, Angers, France), Pseudomonas syringae pv. syringae EPS94 (Institut de Tecnologia Agroalimentària, Universitat de Girona, Spain) and Xanthomonas axonopodis pv. vesicatoria 2133–2 (Instituto Valenciano de Investigaciones Agrarias, Valencia, Spain). All bacteria were stored in Luria Bertani (LB) broth supplemented with glycerol (20%) and maintained at -80°C. Bacteria were scrapped from LB agar after growing for 24–48 h at 25°C. The cell material was suspended in sterile water to obtain a suspension of 10^8 CFU mL^-1.
(§2) Lyophilized peptides were solubilized in sterile Milli-Q water to a final concentration of 1 mM and filter sterilized through a 0.22-μm pore filter. For minimum inhibitory concentration (MIC) assessment, dilutions of the compounds were made to obtain a stock concentration of […]. For antibacterial activity twenty microlitres of each dilution were mixed in a microtiter plate well with 20 μL of the corresponding suspension of the bacterial indicator, 160 μL of Trypticase Soy Broth (TSB) (BioMèrieux, France) to a total volume of 200 μL. For antifungal activity 20 μL of each stock solution were mixed in a microtiter plate well with 80 μL of the corresponding suspension of the fungal pathogen and 100 μL of double concentrated PDB to a total volume of 200 μL containing 0.003% w/v of choramphenicol.
(§3) Three replicates for each strain, compound and concentration were used. Microbial growth was determined by optical density measurement at 600 nm (Bioscreen C, Labsystem, Helsinki, Finland). For antibacterial activity microplates were incubated at 25°C with 20 sec shaking before hourly absorbance measurement for 48 h. For antifungal activity microplates were incubated at 20°C with 1 min shaking before absorbance measurement that were done every two hours during seven days. The experiment was repeated twice. The MIC was taken as the lowest compound concentration with no growth at the end of the experiment.

[2] = tested on: Xanthomonas axonopodis pv. vesicatoria 2133–2; type: cell-based; settings: TSB, 25°C, 48 h, OD 600 nm; tested at 3.1, 6.2, 12.5, 25, 50 μM; three replicates, experiment repeated twice; MIC = lowest concentration with no growth
Description: as §1, §2, §3

[3] = tested on: Erwinia amylovora PMV6076; assay: MIC, in vitro growth inhibition; type: cell-based; settings: TSB, 25°C, 48 h, OD 600 nm; tested at 3.1, 6.2, 12.5, 25, 50 μM; three replicates, experiment repeated twice; MIC = lowest concentration with no growth
Description: as §1, §2, §3

[4] = tested on: Fusarium oxysporum f. sp. lycopersici FOL 3 race 2; assay: MIC, antifungal growth inhibition; type: cell-based
Description: (§4) Fusarium oxysporum f. sp. lycopersici FOL 3 race 2 (ATCC 201829, American Type Culture Collection) was used as fungal pathogen. The strain was cultured on potato dextrose agar (PDA) plates (Difco) and microconidia were obtained after growth at 25°C. The concentration of conidia was determined using a hemacytometer and adjusted to 10^4 conidia mL^-1.
as §2, §3

[5] = tested on: E. amylovora, P. syringae pv. syringae, X. axonopodis pv. vesicatoria and F. oxysporum; type: cell-based; settings: for MIC against three pathogens: three of the four pathogens tested
Description: as §1, §4, §2, §3

[6] = tested on: erythrocyte suspensions of horse blood; settings: horse erythrocytes 5% vol/vol, TRIS buffer pH 7.2, 1 h at 37°C, absorbance 540 nm, relative to melittin 100 μM, ± confidence interval (α = 0.05); for Hemolysis (%) 150 µM: 150 µM peptide; for Hemolysis (%) 250 µM: 250 µM peptide;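 on all read-outs here: Read-out is hemoglobin release into the supernatant, with a buffer-only blank subtracted as the 0% baseline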
[7] = PDB with 0.003% chloramphenicol, 20°C, seven days, OD 600 nm, tested at 3.1, 6.2, 12.5, 25, 50 μM, three replicates, repeated twice

Row | Compound | MIC Pss [1] [µM] | MIC Xav [2] | MIC Ea [3] [µM] | MIC Fo [4] [µM] | MIC Fo [4, 7] [µM] | Antimicrobial activity, in words ([5]; authors' overall judgement over the pathogens tested) | Hemolysis (%) 150 µM [6] [%] | MIC against three pathogens [5] [µM] | Hemolysis (%) 250 µM [6] [%] | MIC Pss ([1]; TSB, 25°C, OD 600 nm, tested at 3.1, 6.2, 12.5, 25, 50 μM, three replicates, experiment repeated twice, MIC = lowest concentration with no growth) [µM]
1 | CC(C)C[C@@H]1NC(=O)[C@H](CCCCN)NC(=O)[C@H](CCCCN)NC(=O)[C@H](CCC(N)=O)NC(=O)[C@H](CC(C)C)NC(=O)[C@H](CCCCN)NC(=O)[C@H](CCCCN)NC(=O)[C@H](Cc2ccccc2)NC(=O)[C@H](CCCCN)NC(=O)[C@H](CCCCN)NC1=O [BPC194] (cyclo(FKKLQKKLKK)) | 3.1 to 6.2 | 3.1 to 6.2 µM | 6.2 to 12.5 | < 3.1 | <3.1 | high antimicrobial activity | 4 ± 1 | – | – | –
2 | CC(C)CCC(=O)NCCCC[C@@H]1NC(=O)[C@H](CCCCN)NC(=O)[C@H](CC(C)C)NC(=O)[C@H](CCCCN)NC(=O)[C@H](CCCCN)NC(=O)[C@H](CCC(N)=O)NC(=O)[C@H](CC(C)C)NC(=O)[C@H](CCCCN)NC(=O)[C@H](CCCCN)NC(=O)[C@H](Cc2ccccc2)NC1=O [BPC504, c(KKLKK(CO-isoC5H11)FKKLQ)] (cyclo(FKKLQKKLKK(Pentanoyl(4-Me)))) | 6.2 to 12.5 | 3.1 to 6.2 µM | 12.5 to 25 | – | 3.1 to 6.2 | – | 89 ± 2 | < 12.5 | – | –
3 | CCCCCC(=O)NCCCC[C@H]1NC(=O)[C@H](CCC(N)=O)NC(=O)[C@H](CC(C)C)NC(=O)[C@H](CCCCN)NC(=O)[C@H](CCCCN)NC(=O)[C@H](Cc2ccccc2)NC(=O)[C@H](CCCCN)NC(=O)[C@H](CCCCN)NC(=O)[C@H](CC(C)C)NC(=O)[C@H](CCCCN)NC1=O [BPC684] (cyclo(FKKLQ[dK](Hexanoyl)KLKK)) | 12.5 to 25 | 6.2 to 12.5 µM | 25 to 50 | – | 6.2 to 12.5 | – | 8 ± 1 | – | – | –
4 | CCCC(=O)NCCCC[C@H]1NC(=O)[C@H](CCCCN)NC(=O)[C@H](CCC(N)=O)NC(=O)[C@H](CC(C)C)NC(=O)[C@H](CCCCN)NC(=O)[C@H](CCCCN)NC(=O)[C@H](Cc2ccccc2)NC(=O)[C@H](CCCCN)NC(=O)[C@H](CCCCN)NC(=O)[C@H](CC(C)C)NC1=O [BPC704] (cyclo(FKKLQK[dK](Butyryl)LKK)) | 6.2 to 12.5 | 6.2 to 12.5 µM | 25 to 50 | – | 12.5 to 25 | – | 9 ± 1 | – | 16 ± 2 | –
5 | CCCC(=O)NCCCC[C@@H]1NC(=O)[C@H](CCC(N)=O)NC(=O)[C@H](CC(C)C)NC(=O)[C@H](CCCCN)NC(=O)[C@H](CCCCN)NC(=O)[C@H](Cc2ccccc2)NC(=O)[C@H](CCCCN)NC(=O)[C@H](CCCCN)NC(=O)[C@H](CC(C)C)NC(=O)[C@H](CCCCN)NC1=O [BPC710] (cyclo(FKKLQK(Butyryl)KLKK)) | 12.5 to 25 | 3.1 to 6.2 µM | 25 to 50 | – | <3.1 | – | 7 ± 1 | – | – | –
6 | CCCC(=O)NCCCC[C@@H]1NC(=O)[C@H](CCCCN)NC(=O)[C@H](CC(C)C)NC(=O)[C@H](CCCCN)NC(=O)[C@H](CCCCN)NC(=O)[C@H](CCC(N)=O)NC(=O)[C@H](CC(C)C)NC(=O)[C@H](CCCCN)NC(=O)[C@H](CCCCN)NC(=O)[C@@H](Cc2ccccc2)NC1=O [BPC712, c(KKLKK(CO-C3H7)fKKLQ)] (cyclo(KKLKK(Butyryl)[dF]KKLQ)) | 12.5 to 25 | 3.1 to 12.5 µM and 3.1 to 6.2 µM | 25 to 50 | 3.1 to 6.2 | 3.1 to 6.2 | – | 30 ± 4 | – | 38 ± 7 | –
7 | CCCC(=O)NCCCC[C@@H]1NC(=O)[C@H](CCC(N)=O)NC(=O)[C@H](CC(C)C)NC(=O)[C@H](CCCCN)NC(=O)[C@H](CCCCN)NC(=O)[C@@H](Cc2ccccc2)NC(=O)[C@H](CCCCN)NC(=O)[C@H](CCCCN)NC(=O)[C@H](CC(C)C)NC(=O)[C@H](CCCCN)NC1=O [BPC716, c(K(CO-C3H7)KLKKfKKLQ)] (cyclo(K(Butyryl)KLKK[dF]KKLQ)) | 12.5 to 25 | 25 to 50 µM | 25 to 50 | – | 3.1 to 6.2 | – | 2 ± 1 | – | 4 ± 0.5 | –
8 | CCCC(=O)NCCCC[C@@H]1NC(=O)[C@H](CCCCN)NC(=O)[C@H](CC(C)C)NC(=O)[C@H](CCCCN)NC(=O)[C@H](CCCCN)NC(=O)[C@H](CCC(N)=O)NC(=O)[C@H](CC(C)C)NC(=O)[C@H](CCCCN)NC(=O)[C@H](CCCCN)NC(=O)[C@H](Cc2c[nH]cn2)NC1=O [BPC718, c(KKLKK(CO-C3H7)HKKLQ)] (cyclo(HKKLQKKLKK(Butyryl))) | 12.5 to 25 | 12.5 to 25 µM | >50 | – | 6.2 to 12.5 | – | 3 ± 1 | – | 4 ± 1 | –
9 | CCCC(=O)NCCCC[C@@H]1NC(=O)[C@H](CCCCN)NC(=O)[C@H](CCC(N)=O)NC(=O)[C@H](CC(C)C)NC(=O)[C@H](CCCCN)NC(=O)[C@H](CCCCN)NC(=O)[C@H](Cc2c[nH]cn2)NC(=O)[C@H](CCCCN)NC(=O)[C@H](CCCCN)NC(=O)[C@H](CC(C)C)NC1=O [BPC720] (cyclo(HKKLQKK(Butyryl)LKK)) | 12.5 to 25 | 12.5 to 25 µM | >50 | – | <3.1 | – | 3 ± 1 | – | 4 ± 1 | –
10 | CCCC(=O)NCCCC[C@@H]1NC(=O)[C@H](CCC(N)=O)NC(=O)[C@H](CC(C)C)NC(=O)[C@H](CCCCN)NC(=O)[C@H](CCCCN)NC(=O)[C@H](Cc2c[nH]cn2)NC(=O)[C@H](CCCCN)NC(=O)[C@H](CCCCN)NC(=O)[C@H](CC(C)C)NC(=O)[C@H](CCCCN)NC1=O [BPC722] (cyclo(HKKLQK(Butyryl)KLKK)) | >50 | 25 to 50 µM | >50 | – | 3.1 to 6.2 | – | 3 ± 0.2 | – | 3 ± 0.1 | –
11 | CCCC(=O)N[C@@H](CCCCN)C(=O)N[C@@H](CC(C)C)C(=O)NCCCC[C@H]1NC(=O)[C@H](CCCCN)NC(=O)[C@H](CC(C)C)NC(=O)[C@H](CCCCN)NC(=O)[C@H](CCCCN)NC(=O)[C@H](CCC(N)=O)NC(=O)[C@H](CC(C)C)NC(=O)[C@H](CCCCN)NC(=O)[C@H](CCCCN)NC(=O)[C@H](Cc2ccccc2)NC1=O [BPC724, c(KKLKk(LK-CO-C3H7)FKKLQ)] (cyclo(FKKLQKKLK[dK]([Leu-Lys-Butyryl]))) | 12.5 to 25 | 6.2 to 12.5 µM | 25 to 50 | – | <3.1 | – | 3 ± 2 | – | 3 ± 0.5 | –
12 | CCCC(=O)N[C@@H](CCCCN)C(=O)N[C@@H](CC(C)C)C(=O)NCCCC[C@@H]1NC(=O)[C@H](CCCCN)NC(=O)[C@H](CC(C)C)NC(=O)[C@H](CCCCN)NC(=O)[C@H](CCCCN)NC(=O)[C@H](CCC(N)=O)NC(=O)[C@H](CC(C)C)NC(=O)[C@H](CCCCN)NC(=O)[C@H](CCCCN)NC(=O)[C@@H](Cc2ccccc2)NC1=O [BPC726, c(KKLKK(LK-CO-C3H7)fKKLQ)] (cyclo(KKLKK([Leu-Lys-Butyryl])[dF]KKLQ)) | 12.5 to 25 | 6.2 to 12.5 µM | 25 to 50 | – | 3.1 to 6.2 | – | 0 ± 1 | – | 4 ± 2 | –
13 | c(KKLKK(CO-C8H17)FKKLQ) [BPC594] | – | 3.1 to 6.2 µM | 25 to 50 | – | 6.2 to 12.5 | – | – | < 12.5 | – | 6.2 to 12.5
